# Test results published in PubChem BioAssay (NCI).
#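 Briefly, cells in 96-well plates were exposed to five compound concentrations for 48 h, and endpoints were estimated by linear interpolation. TGI denotes the concentration required for complete inhibition of growth.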 Where a SMILES comes first, the peptide text is derived from it. [ ]: non-standard residue; d: D form. The star is where a group is joined. hSer = N[CH](CCO)C(=O)O; Boc = CC(C)(C)OC(=O)*
# Legend:
# Assay in all cases: DTP human tumour cell line panel, 48 h
# [1] = test system: NCI-H522 lung
# [2] = test system: RPMI-8226 leukemia
# [3] = test system: SNB-19 CNS
# [4] = test system: SF-268 CNS
# [5] = test system: NCI-H460 lung
# [6] = test system: SK-OV-3 ovarian
# [7] = test system: ACHN renal
# [8] = test system: SK-MEL-5 melanoma
# [9] = test system: SK-MEL-28 melanoma
# [10] = test system: A498 renal
compound,measurement,setting,value
COCCC(NC(=O)C(CC(C)C)NC(=O)OC(C)(C)C)C(N)=O (stereo not drawn) (Boc-Leu-[hSer](Me)-NH2; configuration not given here),TGI,[1],> 100 µM
same,TGI,[2],> 100 µM
same,TGI,[3],> 100 µM
same,TGI,[4],> 100 µM
same,TGI,[5],> 100 µM
same,TGI,[6],> 100 µM
same,TGI,[7],> 100 µM
same,TGI,[8],> 100 µM
same,TGI,[9],> 100 µM
same,TGI,[10],> 100 µM
COc1ccc2c(c1O)-c1c(OC)c(OC)cc3c1[C@H](C2)[N+](C)(C)CC3,TGI,[1],> 100 µM
same,TGI,[2],> 100 µM
same,TGI,[3],> 100 µM
same,TGI,[4],> 100 µM
same,TGI,[5],> 100 µM
same,TGI,[6],> 100 µM
same,TGI,[7],> 100 µM
same,TGI,[8],> 100 µM
same,TGI,[9],> 100 µM
same,TGI,[10],> 100 µM
CCOn1cc(C[C@@]2(O)C(=O)OC3[C@@H](O)CO[C@@]32O)c2ccccc21 (stereo not given in full),TGI,[1],> 100 µM
same,TGI,[2],> 100 µM
same,TGI,[3],> 100 µM
same,TGI,[4],> 100 µM
same,TGI,[5],> 100 µM
same,TGI,[6],> 100 µM
same,TGI,[7],> 100 µM
same,TGI,[8],> 100 µM
same,TGI,[9],> 100 µM
same,TGI,[10],4.09 µM
Oc1c(OCc2nnc(CCCCCCCCc3nnc(COc4ccc5ccccc5c4O)n3Nc3ccccc3)n2Nc2ccccc2)ccc2ccccc12,TGI,[1],27.3 µM
same,TGI,[2],26.7 µM
same,TGI,[3],29.8 µM
same,TGI,[4],27 µM
same,TGI,[5],20.5 µM
same,TGI,[6],27.3 µM
same,TGI,[7],68.7 µM
same,TGI,[8],3.27 µM
same,TGI,[9],14.3 µM
same,TGI,[10],34.3 µM
O=c1c2cc([N+](=O)[O-])ccc2n2n1Cc1ccccc1CC2,TGI,[1],> 100 µM
same,TGI,[2],> 100 µM
same,TGI,[3],> 100 µM
same,TGI,[4],> 100 µM
same,TGI,[5],> 100 µM
same,TGI,[6],> 100 µM
same,TGI,[7],> 100 µM
same,TGI,[8],> 100 µM
same,TGI,[9],> 100 µM
same,TGI,[10],> 100 µM
CSc1nc2c(c(N(C)C)n1)C=Nn1c(nc3ccccc31)S2,TGI,[1],> 100 µM
same,TGI,[2],> 100 µM
same,TGI,[3],> 100 µM
same,TGI,[4],> 100 µM
same,TGI,[5],> 100 µM
same,TGI,[6],> 100 µM
same,TGI,[7],> 100 µM
same,TGI,[8],> 100 µM
same,TGI,[9],> 100 µM
same,TGI,[10],> 100 µM
O=C(Cc1ccc(Cl)c(Cl)c1)NCCCN1CCN(CCCN2CCCCC2)CC1,TGI,[1],35.1 µM
same,TGI,[2],16.3 µM
same,TGI,[3],63.9 µM
same,TGI,[4],50.4 µM
same,TGI,[5],33.6 µM
same,TGI,[6],40.8 µM
same,TGI,[7],60.2 µM
same,TGI,[8],22.1 µM
same,TGI,[9],4.95 µM
same,TGI,[10],31 µM
CCOC(=O)C1(Cc2ccc(C)cc2)Cc2ccc(C)cc2C1=O (stereo not given),TGI,[1],36.9 µM
same,TGI,[2],64.2 µM
same,TGI,[3],> 100 µM
same,TGI,[4],> 100 µM
same,TGI,[5],82.4 µM
same,TGI,[6],> 100 µM
same,TGI,[7],> 100 µM
same,TGI,[8],20.8 µM
same,TGI,[9],> 100 µM
same,TGI,[10],> 79.1 µM
O=C(CCSC(CC(=O)c1ccc(Cl)cc1)c1ccc(Cl)cc1)Nc1ccc(Cl)cc1 (stereo not given),TGI,[1],40.2 µM
same,TGI,[2],5.57 µM
same,TGI,[3],26.6 µM
same,TGI,[4],29 µM
same,TGI,[5],28.6 µM
same,TGI,[6],42.3 µM
same,TGI,[7],27.5 µM
same,TGI,[8],29.4 µM
same,TGI,[9],29.4 µM
same,TGI,[10],25.1 µM
O=c1[nH]cnc2c1nnn2CCCn1nnc2c(=O)[nH]cnc21,TGI,[1],> 100 µM
same,TGI,[2],> 100 µM
same,TGI,[3],> 100 µM
same,TGI,[4],> 100 µM
same,TGI,[5],> 100 µM
same,TGI,[6],> 100 µM
same,TGI,[7],> 100 µM
same,TGI,[8],> 100 µM
same,TGI,[9],> 100 µM
same,TGI,[10],> 100 µM
O=C1N[C@H]2c3c(Cl)sc(Cl)c3C(=O)[C@H]2O1,TGI,[1],3.43 µM
same,TGI,[2],> 80.8 µM
same,TGI,[3],46.5 µM
same,TGI,[4],37 µM
same,TGI,[5],37 µM
same,TGI,[6],52.1 µM
same,TGI,[7],35.6 µM
same,TGI,[8],> 69 µM
same,TGI,[9],24.7 µM
same,TGI,[10],43.2 µM
COC(=O)C1Cc2c(C)cccc2C1=O (stereo not given),TGI,[1],> 100 µM
same,TGI,[2],> 100 µM
same,TGI,[3],> 100 µM
same,TGI,[4],> 100 µM
same,TGI,[5],> 100 µM
same,TGI,[6],> 100 µM
same,TGI,[7],> 100 µM
same,TGI,[8],> 100 µM
same,TGI,[9],> 100 µM
same,TGI,[10],> 100 µM
c1cnc2c(c1)-n1cccc1C1(CCOCC1)NN2,TGI,[1],> 100 µM
same,TGI,[2],> 100 µM
same,TGI,[3],> 100 µM
same,TGI,[4],> 100 µM
same,TGI,[5],> 100 µM
same,TGI,[6],> 100 µM
same,TGI,[7],> 100 µM
same,TGI,[8],> 100 µM
same,TGI,[9],> 100 µM
same,TGI,[10],> 100 µM
CCC1(O)C=CC(=O)C=C1,TGI,[1],24.7 µM
same,TGI,[2],> 100 µM
same,TGI,[3],39.2 µM
same,TGI,[4],52 µM
same,TGI,[5],> 83.2 µM
same,TGI,[6],> 100 µM
same,TGI,[7],49 µM
same,TGI,[8],> 100 µM
same,TGI,[9],57.6 µM
same,TGI,[10],67.9 µM
C1=C2SSC3=CC=C(SSc4ccc(s4)SSC4=CC=C(SSC(=C1)S2)S4)S3,TGI,[1],> 100 µM
same,TGI,[2],> 100 µM
same,TGI,[3],> 100 µM
same,TGI,[4],> 100 µM
same,TGI,[5],> 100 µM
same,TGI,[6],> 100 µM
same,TGI,[7],> 100 µM
same,TGI,[8],> 100 µM
same,TGI,[9],> 100 µM
same,TGI,[10],> 100 µM
CC1=C/C(=C(\c2ccc(N(C)C)cc2)c2ccc([N+](C)(C)C)cc2)C=CC1=[N+](C)C,TGI,[1],31.2 µM
same,TGI,[2],5.44 µM
same,TGI,[3],89.4 µM
same,TGI,[4],26.3 µM
same,TGI,[5],22.4 µM
same,TGI,[6],31.6 µM
same,TGI,[7],43.8 µM
same,TGI,[8],24.5 µM
same,TGI,[9],31.4 µM
same,TGI,[10],36.7 µM
